Data as given in ChEMBL document CHEMBL4052645, “Discovery of potent and efficacious pyrrolopyridazines as dual JAK1/3 inhibitors” (Bioorg Med Chem Lett, 2017).

Columns and labels:
[1] = target: Rho-associated protein kinase 1 (Homo sapiens, UniProt Q13464); assay: Inhibition of human ROCK1 (M1 to R415 residues) expressed in mammalian expression system assessed as residual activity at 50 nM by KINOMEscan assay relative to control
[2] = target: BMP-2-inducible protein kinase (Homo sapiens) (UniProt Q9NSY1); assay: Inhibition of human BIKE (S34 to N329 residues) expressed in bacterial expression system assessed as residual activity at 50 nM by KINOMEscan assay relative to control
[3] = target: Epidermal growth factor receptor (Homo sapiens) (UniProt P00533); assay: Inhibition of wild-type human partial length EGFR (R669 to V1011 residues) expressed in bacterial expression system assessed as residual activity at 50 nM by Kinomescan method relative to control
[4] = target: Serine/threonine-protein kinase Sgk3 (Homo sapiens) (UniProt Q96BR1); assay: Inhibition of wild-type human partial length SGK3 (M119 to L496 residues) expressed in mammalian expression system assessed as residual activity at 50 nM by Kinomescan method relative to control
[5] = target: Homeodomain-interacting protein kinase 3 (Homo sapiens) (UniProt Q9H422); assay: Inhibition of wild-type human partial length HIPK3 (M153 to N562 residues) expressed in mammalian expression system assessed as residual activity at 50 nM by Kinomescan method relative to control
Homeodomain-interacting protein kinase 3 (Homo sapiens), sequence (Q9H422 whole entry, looked up, the tested form may be a part): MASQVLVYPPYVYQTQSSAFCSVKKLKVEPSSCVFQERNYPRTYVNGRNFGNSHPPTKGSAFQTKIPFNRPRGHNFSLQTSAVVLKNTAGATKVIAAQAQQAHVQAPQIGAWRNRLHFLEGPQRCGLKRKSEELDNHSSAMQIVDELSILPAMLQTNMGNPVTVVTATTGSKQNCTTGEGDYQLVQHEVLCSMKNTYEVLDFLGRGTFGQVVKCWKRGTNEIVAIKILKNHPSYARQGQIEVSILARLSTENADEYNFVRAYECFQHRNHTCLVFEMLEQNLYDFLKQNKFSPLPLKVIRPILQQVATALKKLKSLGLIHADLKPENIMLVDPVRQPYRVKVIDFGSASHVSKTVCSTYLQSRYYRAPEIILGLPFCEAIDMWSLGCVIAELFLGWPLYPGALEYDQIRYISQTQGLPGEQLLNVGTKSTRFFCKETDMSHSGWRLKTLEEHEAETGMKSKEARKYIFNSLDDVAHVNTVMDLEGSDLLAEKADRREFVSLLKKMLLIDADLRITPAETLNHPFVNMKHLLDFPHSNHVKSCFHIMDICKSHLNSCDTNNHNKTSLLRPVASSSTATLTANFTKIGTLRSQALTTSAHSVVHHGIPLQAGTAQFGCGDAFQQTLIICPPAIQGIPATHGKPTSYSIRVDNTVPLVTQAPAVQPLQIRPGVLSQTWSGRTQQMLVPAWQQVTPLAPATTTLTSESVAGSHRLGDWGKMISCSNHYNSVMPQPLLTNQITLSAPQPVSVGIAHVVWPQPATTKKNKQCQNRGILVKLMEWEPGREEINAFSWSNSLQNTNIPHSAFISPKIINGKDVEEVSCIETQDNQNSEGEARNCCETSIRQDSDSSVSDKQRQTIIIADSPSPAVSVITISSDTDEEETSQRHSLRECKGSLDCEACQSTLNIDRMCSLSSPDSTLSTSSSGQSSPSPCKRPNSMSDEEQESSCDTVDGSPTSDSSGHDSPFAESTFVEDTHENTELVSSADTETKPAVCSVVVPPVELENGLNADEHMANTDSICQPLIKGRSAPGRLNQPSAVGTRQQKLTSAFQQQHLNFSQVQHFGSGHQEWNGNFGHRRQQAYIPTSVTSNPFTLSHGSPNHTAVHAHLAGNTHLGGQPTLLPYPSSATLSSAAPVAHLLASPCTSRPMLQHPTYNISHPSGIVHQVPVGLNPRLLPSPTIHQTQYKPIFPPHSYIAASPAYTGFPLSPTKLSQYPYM

[6] = target: Activated CDC42 kinase 1 (Homo sapiens) (UniProt Q07912); assay: Inhibition of wild-type human partial length ACK (S159 to D474 residues) expressed in bacterial expression system assessed as residual activity at 50 nM by Kinomescan method relative to control
[7] = target: Inhibitor of nuclear factor kappa-B kinase subunit beta (Homo sapiens) (UniProt O14920); assay: Inhibition of wild-type human full length IKK-beta (M1 to S756 residues) expressed in mammalian expression system assessed as residual activity at 50 nM by Kinomescan method relative to control
[8] = target: Receptor tyrosine-protein kinase erbB-4 (Homo sapiens) (UniProt Q15303); assay: Inhibition of wild-type human partial length ERBB4 (L690 to K994 residues) expressed in bacterial expression system assessed as residual activity at 50 nM by Kinomescan method relative to control
Receptor tyrosine-protein kinase erbB-4 (Homo sapiens), sequence (Q15303 whole entry, the tested form may be a part): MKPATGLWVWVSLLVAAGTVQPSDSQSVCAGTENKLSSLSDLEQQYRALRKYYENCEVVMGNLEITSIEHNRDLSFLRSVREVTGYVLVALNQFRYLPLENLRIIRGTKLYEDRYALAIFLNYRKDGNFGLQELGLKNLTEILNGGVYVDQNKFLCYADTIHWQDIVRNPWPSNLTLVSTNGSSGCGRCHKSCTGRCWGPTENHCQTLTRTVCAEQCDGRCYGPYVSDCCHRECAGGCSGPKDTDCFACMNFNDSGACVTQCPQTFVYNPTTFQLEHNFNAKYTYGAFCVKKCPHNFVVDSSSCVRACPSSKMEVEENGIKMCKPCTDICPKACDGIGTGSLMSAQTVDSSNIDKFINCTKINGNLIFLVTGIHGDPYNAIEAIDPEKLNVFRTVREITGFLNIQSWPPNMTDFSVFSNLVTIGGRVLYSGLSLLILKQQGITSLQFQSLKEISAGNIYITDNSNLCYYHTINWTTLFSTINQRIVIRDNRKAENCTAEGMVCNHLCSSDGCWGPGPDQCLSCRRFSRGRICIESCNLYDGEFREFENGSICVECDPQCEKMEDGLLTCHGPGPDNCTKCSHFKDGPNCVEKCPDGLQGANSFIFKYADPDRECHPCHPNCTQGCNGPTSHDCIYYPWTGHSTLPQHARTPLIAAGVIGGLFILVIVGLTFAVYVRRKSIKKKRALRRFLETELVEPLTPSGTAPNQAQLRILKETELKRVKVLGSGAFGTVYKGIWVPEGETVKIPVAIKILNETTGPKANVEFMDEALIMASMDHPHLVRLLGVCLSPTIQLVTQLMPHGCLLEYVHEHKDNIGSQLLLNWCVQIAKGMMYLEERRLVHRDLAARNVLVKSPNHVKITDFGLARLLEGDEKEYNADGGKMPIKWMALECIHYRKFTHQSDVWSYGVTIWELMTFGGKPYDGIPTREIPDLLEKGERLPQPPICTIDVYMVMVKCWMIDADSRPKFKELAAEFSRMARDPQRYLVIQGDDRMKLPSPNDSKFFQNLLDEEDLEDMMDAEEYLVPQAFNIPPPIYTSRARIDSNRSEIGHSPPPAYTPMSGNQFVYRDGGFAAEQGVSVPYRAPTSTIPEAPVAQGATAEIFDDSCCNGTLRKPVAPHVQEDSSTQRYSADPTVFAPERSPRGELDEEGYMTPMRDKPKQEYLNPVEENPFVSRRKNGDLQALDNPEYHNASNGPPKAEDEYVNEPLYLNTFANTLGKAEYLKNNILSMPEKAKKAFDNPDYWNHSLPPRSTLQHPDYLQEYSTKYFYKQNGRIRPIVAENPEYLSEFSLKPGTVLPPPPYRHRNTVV

[9] = target: Focal adhesion kinase 1 (Homo sapiens) (UniProt Q05397); assay: Inhibition of wild-type human partial length FAK (D402 to R696 residues) expressed in bacterial expression system assessed as residual activity at 50 nM by Kinomescan method relative to control
[10] = tested on: Phosphatidylinositol 4,5-bisphosphate 3-kinase catalytic subunit alpha isoform (Homo sapiens), P42336 [E545A]; assay: Inhibition of human partial length PIK3CA E545A mutant (R108 to N1068 residues) expressed in mammalian expression system assessed as residual activity at 50 nM by Kinomescan method relative to control
[11] = target: Calcium/calmodulin-dependent protein kinase type II subunit gamma (Homo sapiens) (UniProt Q13555); assay: Inhibition of wild-type human partial length CAMK2G (R9 to A303 residues) expressed in bacterial expression system assessed as residual activity at 50 nM by Kinomescan method relative to control
[12] = target: Receptor-interacting serine/threonine-protein kinase 2 (Homo sapiens) (UniProt O43353); assay: Inhibition of wild-type human partial length RIPK2 (M1 to K310 residues) expressed in bacterial expression system assessed as residual activity at 50 nM by Kinomescan method relative to control
[13] = target: Ribosomal protein S6 kinase alpha-5 (Homo sapiens) (UniProt O75582); assay: Inhibition of wild-type human partial length C-terminal MSK1 kinase domain 2 (V390 to T718 residues) expressed in bacterial expression system assessed as residual activity at 50 nM by Kinomescan method relative to control
[14] = target: Dual specificity protein kinase CLK3 (Homo sapiens) (UniProt P49761); assay: Inhibition of wild-type human full length CLK3 (M1 to R490 residues) expressed in bacterial expression system assessed as residual activity at 50 nM by Kinomescan method relative to control
Dual specificity protein kinase CLK3 (Homo sapiens), sequence (P49761 whole entry, looked up, the tested form may be a part): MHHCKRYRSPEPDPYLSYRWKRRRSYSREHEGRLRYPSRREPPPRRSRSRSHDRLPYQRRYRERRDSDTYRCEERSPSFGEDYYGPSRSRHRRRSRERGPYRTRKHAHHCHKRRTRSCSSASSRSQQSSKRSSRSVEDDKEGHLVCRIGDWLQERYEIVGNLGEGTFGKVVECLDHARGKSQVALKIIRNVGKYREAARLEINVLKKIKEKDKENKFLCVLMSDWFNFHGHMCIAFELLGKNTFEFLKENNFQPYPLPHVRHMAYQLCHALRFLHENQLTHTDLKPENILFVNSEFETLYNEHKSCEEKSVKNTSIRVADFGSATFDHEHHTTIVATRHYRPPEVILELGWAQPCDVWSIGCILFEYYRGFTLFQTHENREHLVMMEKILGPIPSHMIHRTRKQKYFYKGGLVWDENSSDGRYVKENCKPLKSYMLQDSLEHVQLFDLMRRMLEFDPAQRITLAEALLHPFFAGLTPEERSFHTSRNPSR

[15] = target: Ephrin type-B receptor 3 (Homo sapiens) (UniProt P54753); assay: Inhibition of wild-type human partial length EPHB3 (Q599 to T928 residues) expressed in bacterial expression system assessed as residual activity at 50 nM by Kinomescan method relative to control
[16] = target: Tyrosine-protein kinase Fer (Homo sapiens) (UniProt P16591); assay: Inhibition of wild-type human partial length FER (S542 to T822 residues) expressed in bacterial expression system assessed as residual activity at 50 nM by Kinomescan method relative to control
Tyrosine-protein kinase Fer (Homo sapiens), sequence (P16591 whole entry, looked up, the tested form may be a part): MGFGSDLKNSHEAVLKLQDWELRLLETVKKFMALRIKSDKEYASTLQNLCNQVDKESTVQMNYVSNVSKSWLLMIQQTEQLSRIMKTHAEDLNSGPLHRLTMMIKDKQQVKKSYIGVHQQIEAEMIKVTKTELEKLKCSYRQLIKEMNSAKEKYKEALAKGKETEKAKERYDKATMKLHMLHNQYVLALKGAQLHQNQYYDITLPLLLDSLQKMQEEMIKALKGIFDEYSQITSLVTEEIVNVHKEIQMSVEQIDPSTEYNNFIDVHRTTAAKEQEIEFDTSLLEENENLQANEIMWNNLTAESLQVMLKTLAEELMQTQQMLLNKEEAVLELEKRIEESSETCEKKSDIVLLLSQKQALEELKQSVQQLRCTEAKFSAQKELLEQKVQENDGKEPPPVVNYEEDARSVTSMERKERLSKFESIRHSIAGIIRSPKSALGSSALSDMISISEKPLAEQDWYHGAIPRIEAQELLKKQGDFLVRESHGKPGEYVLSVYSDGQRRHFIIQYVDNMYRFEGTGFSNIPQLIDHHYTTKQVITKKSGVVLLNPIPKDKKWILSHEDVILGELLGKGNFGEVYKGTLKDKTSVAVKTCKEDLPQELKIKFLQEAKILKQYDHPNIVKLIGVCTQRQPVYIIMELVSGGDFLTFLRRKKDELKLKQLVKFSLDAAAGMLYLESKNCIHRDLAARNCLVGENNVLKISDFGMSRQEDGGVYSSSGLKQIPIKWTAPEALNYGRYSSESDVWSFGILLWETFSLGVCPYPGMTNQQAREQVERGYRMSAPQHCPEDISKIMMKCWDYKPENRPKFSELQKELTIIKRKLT

[17] = target: Fibroblast growth factor receptor 2 (Homo sapiens) (UniProt P21802); assay: Inhibition of wild-type human partial length FGFR2 (D457 to E769 residues) expressed in bacterial expression system assessed as residual activity at 50 nM by Kinomescan method relative to control
Fibroblast growth factor receptor 2 (Homo sapiens), sequence (P21802 22-821 limits assumed): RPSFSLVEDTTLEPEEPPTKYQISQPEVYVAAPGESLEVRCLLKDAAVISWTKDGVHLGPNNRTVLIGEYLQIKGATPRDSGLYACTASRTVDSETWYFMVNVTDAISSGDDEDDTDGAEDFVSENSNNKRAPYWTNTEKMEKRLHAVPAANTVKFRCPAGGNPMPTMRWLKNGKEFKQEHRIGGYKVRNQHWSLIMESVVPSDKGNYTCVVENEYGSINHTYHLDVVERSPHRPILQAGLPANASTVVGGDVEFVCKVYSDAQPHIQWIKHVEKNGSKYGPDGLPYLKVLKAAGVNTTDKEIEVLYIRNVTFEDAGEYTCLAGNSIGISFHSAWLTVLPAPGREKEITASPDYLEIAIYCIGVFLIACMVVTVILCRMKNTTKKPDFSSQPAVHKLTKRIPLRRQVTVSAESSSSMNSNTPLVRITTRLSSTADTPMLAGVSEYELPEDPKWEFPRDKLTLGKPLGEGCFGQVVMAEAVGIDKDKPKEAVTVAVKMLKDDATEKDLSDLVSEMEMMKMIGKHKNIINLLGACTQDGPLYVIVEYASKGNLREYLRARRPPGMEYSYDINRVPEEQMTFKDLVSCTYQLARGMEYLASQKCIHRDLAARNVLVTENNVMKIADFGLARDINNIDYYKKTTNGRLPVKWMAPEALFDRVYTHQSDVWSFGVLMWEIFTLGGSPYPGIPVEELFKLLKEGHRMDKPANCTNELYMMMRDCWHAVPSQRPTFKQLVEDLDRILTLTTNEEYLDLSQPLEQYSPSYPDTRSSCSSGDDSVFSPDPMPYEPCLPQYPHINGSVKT

[18] = target: Inhibitor of nuclear factor kappa-B kinase subunit epsilon (Homo sapiens) (UniProt Q14164); assay: Inhibition of wild-type human full length IKK-epsilon (M1 to V716 residues) expressed in mammalian expression system assessed as residual activity at 50 nM by Kinomescan method relative to control
[19] = target: Serine/threonine-protein kinase LATS2 (Homo sapiens) (UniProt Q9NRM7); assay: Inhibition of wild-type human partial length LATS2 (Q641 to V1088 residues) expressed in mammalian expression system assessed as residual activity at 50 nM by Kinomescan method relative to control
[20] = target: Dual specificity mitogen-activated protein kinase kinase 4 (Homo sapiens) (UniProt P45985); assay: Inhibition of wild-type human partial length MAP2K4 (S84 to D399 residues) expressed in mammalian expression system assessed as residual activity at 50 nM by Kinomescan method relative to control
[21] = target: Dual specificity mitogen-activated protein kinase kinase 7 (Homo sapiens) (UniProt O14733); assay: Inhibition of wild-type human full length MAP2K7 (M1 to R419 residues) expressed in mammalian expression system assessed as residual activity at 50 nM by Kinomescan method relative to control
Dual specificity mitogen-activated protein kinase kinase 7 (Homo sapiens), sequence (O14733 whole entry, the tested form may be a part, canonical isoform): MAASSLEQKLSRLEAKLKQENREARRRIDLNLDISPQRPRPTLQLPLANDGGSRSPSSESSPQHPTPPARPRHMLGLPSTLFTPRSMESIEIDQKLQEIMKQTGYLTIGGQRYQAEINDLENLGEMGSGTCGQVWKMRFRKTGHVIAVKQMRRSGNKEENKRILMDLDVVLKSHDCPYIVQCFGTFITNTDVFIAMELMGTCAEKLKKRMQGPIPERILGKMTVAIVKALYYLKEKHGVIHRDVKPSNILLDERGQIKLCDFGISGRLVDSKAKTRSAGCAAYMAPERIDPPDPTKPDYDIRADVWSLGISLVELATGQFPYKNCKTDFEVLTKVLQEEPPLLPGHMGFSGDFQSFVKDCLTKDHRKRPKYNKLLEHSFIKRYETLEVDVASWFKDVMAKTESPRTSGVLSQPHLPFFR

[22] = target: Phosphatidylinositol 4,5-bisphosphate 3-kinase catalytic subunit alpha isoform (Homo sapiens) (UniProt P42336); assay: Inhibition of wild-type human partial length PI3KCA (R108 to N1068 residues) expressed in mammalian expression system assessed as residual activity at 50 nM by Kinomescan method relative to control
[23] = target: cAMP-dependent protein kinase catalytic subunit alpha (Homo sapiens) (UniProt P17612); assay: Inhibition of wild-type human partial length PKACA (G10 to F351 residues) expressed in bacterial expression system assessed as residual activity at 50 nM by Kinomescan method relative to control
[24] = target: STE20/SPS1-related proline-alanine-rich protein kinase (Homo sapiens) (UniProt Q9UEW8); assay: Inhibition of wild-type human partial length STLK3 (P43 to I357 residues) expressed in mammalian expression system assessed as residual activity at 50 nM by Kinomescan method relative to control

Structure (SMILES)	Activity [1]	Activity [2]	Activity [3]	Activity [4]	Activity [5]	Activity [6]	Activity [7]	Activity [8]	Activity [9]	Activity [10]	Activity [11]	Activity [12]	Activity [13]	Activity [14]	Activity [15]	Activity [16]	Activity [17]	Activity [18]	Activity [19]	Activity [20]	other results
COc1ccc(-c2cc3c(N[C@@H]4CC[C@](C)(N)C4(C)C)c(C(N)=O)cnn3c2)cn1	36%	42%	100%	84%	100%	100%	100%	100%	88%	100%	90%	100%	100%	96%	100%	100%	89%	91%	94%	100%	Activity [21]: 55%; Activity [22]: 100%; Activity [23]: 100%; Activity [24]: 84%
CC1(C)[C@H](Nc2c(C(N)=O)cnn3cc(-c4ccccc4)cc23)CC[C@]1(C)N	5.3%	7.5%	30%	56%	72%	73%	73%	87%	88%	90%	91%	93%	95%	100%	100%	100%	100%	100%	100%	100%	Activity [21]: 100%; Activity [22]: 100%; Activity [23]: 100%; Activity [24]: 100%
